Experiment [1] concerns the target T1, Bile acid receptor (Homo sapiens, UniProt Q96RI1).
T1 sequence (Q96RI1 whole entry): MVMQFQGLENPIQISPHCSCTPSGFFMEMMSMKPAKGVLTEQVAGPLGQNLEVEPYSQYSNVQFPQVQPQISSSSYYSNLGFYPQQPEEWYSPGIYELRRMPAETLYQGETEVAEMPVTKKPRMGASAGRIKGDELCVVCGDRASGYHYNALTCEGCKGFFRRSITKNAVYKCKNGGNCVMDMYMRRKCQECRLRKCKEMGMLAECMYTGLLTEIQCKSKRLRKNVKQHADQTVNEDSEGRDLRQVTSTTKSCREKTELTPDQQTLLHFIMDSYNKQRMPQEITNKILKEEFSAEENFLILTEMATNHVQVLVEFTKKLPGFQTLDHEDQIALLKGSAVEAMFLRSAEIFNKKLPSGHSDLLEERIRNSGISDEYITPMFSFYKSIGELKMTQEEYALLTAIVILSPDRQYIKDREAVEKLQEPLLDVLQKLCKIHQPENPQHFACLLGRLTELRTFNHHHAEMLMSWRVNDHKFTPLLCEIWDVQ
Briefly: Agonist activity at human FXR transfected in african green monkey CV1 cells by luciferase reporter gene transient transfection assay. It counts as functional, cell-based, CV-1.

Experiment [2] concerns the target T2, Bile acid receptor (Homo sapiens) (UniProt Q96RI1).
T2 sequence (whole entry): T1 sequence (Q96RI1 whole entry)
Briefly: Agonist activity at human FXR assessed as SRC1 peptide interaction with receptor ligand binding domain by FRET assay relative to GW-4064.

Experiment [3] concerns the target T1, Bile acid receptor. Briefly: Agonist activity at human FXR assessed as SRC1 peptide interaction with receptor ligand binding domain by FRET assay.
For experiment [4], the target named is T2, Bile acid receptor (Homo sapiens). Briefly: Agonist activity at human FXR transfected in african green monkey CV1 cells by luciferase reporter gene transient transfection assay relative to GW-4064. It counts as functional, cell-based. Particulars: CV-1. For orientation: Reporter assays use an easily measured gene product as a stand-in for the process of interest.

For experiment [5], the target named is T1, Bile acid receptor. Briefly: Agonist activity at human FXR assessed as SRC1 coactivator peptide recruitment by cell free FRET assay. It counts as functional.

A value given as a limit tells only on which side of the number the result lay.

Turning to `O=C(O)c1cccc(/C=C/c2ccc(OCc3c(-c4c(Cl)cccc4Cl)noc3C3CCC3)cc2Cl)c1`, the EC50 in experiment [1] is 140 nM; in experiment [3] it was 410 nM. Besides, the figures for the %max in experiment [2] and in experiment [4] were 67% and 100%, respectively.
On to `CC(C)c1onc(COc2c(F)cc(F)cc2F)c1COc1ccc(/C=C/c2cccc(C(=O)O)c2)c(Cl)c1`, for which the results for the concentration for a half-maximal effect (EC50) in experiment [1] and in experiment [3] were 300 nM and 110 nM, respectively. Besides, the values for the %max in experiment [2] and in experiment [4] were 106% and 95%, respectively.
For the molecule `CC(C)c1onc(COc2ccc(Cl)c(Cl)c2)c1COc1ccc(/C=C/c2cccc(C(=O)O)c2)c(Cl)c1`, the %max in experiment [2] was found to be 57%. The EC50 in experiment [5] is above 10000 nM; in experiment [3], 1100 nM.
Regarding `O=C(O)c1cccc(/C=C/c2ccc(OCc3c(-c4c(Cl)cccc4Cl)noc3C3CCCC3)cc2Cl)c1`, the 50% effective concentration (EC50) in experiment [1] was 240 nM; in experiment [3], 560 nM. The %max in experiment [2] is 81%; in experiment [4], 75%.
For `CC(C)c1onc(CCc2ccccc2)c1COc1ccc(/C=C/c2cccc(C(=O)O)c2)c(Cl)c1` the same measures were 93 nM, 320 nM, 96% and 110%.
Turning to `CC(C)c1onc(COC(C)(C)C)c1COc1ccc(/C=C/c2cccc(C(=O)O)c2)c(Cl)c1`, the EC50 in experiment [1] stood at 600 nM; in experiment [3], 660 nM. Further, the values for the %max in experiment [2] and in experiment [4] were 77% and 132%, respectively.
`CC(C)c1onc(CSc2nnnn2C)c1COc1ccc(/C=C/c2cccc(C(=O)O)c2)c(Cl)c1`: the EC50 in experiment [1] amounted to 2100 nM; in experiment [3], 930 nM. Moreover, the %max is 59% in experiment [2] and 45% in experiment [4].
Consider `Cc1cc(Cl)cc(C)c1OCc1noc(C(C)C)c1COc1ccc(/C=C/c2cccc(C(=O)O)c2)c(Cl)c1`, for which the EC50 in experiment [1] stood at 110 nM; in experiment [3] it was 130 nM. For the same molecule, the %max in experiment [2] came to 99%; in experiment [4], 66%.
With `CC(C)c1onc(COc2ccccc2)c1COc1ccc(/C=C/c2cccc(C(=O)O)c2)c(Cl)c1`, the 50% effective concentration (EC50) in experiment [1] came out at 1200 nM; in experiment [3], 1100 nM. Further, the %max is 55% in experiment [2] and 27% in experiment [4].
The matching figures for `CC(C)c1onc(COc2c(Cl)cc(Cl)cc2Cl)c1COc1ccc(/C=C/c2cccc(C(=O)O)c2)c(Cl)c1`: 200 nM, 58 nM, 101% and 68%.
The matching figures for `CC(C)c1onc(COc2c(F)cccc2Cl)c1COc1ccc(/C=C/c2cccc(C(=O)O)c2)c(Cl)c1`: 290 nM, 74 nM, 103% and 121%.
Take `CC(C)c1onc(CSc2c(Cl)cccc2Cl)c1COc1ccc(/C=C/c2cccc(C(=O)O)c2)c(Cl)c1`: the EC50 in experiment [1] was 100 nM; in experiment [3] it was 51 nM. Moreover, the values for the %max in experiment [2] and in experiment [4] were 110% and 86%, respectively.
The matching figures for `CC(C)c1onc(COc2ccc3ccccc3c2)c1COc1ccc(/C=C/c2cccc(C(=O)O)c2)c(Cl)c1`: 2300 nM, 930 nM, 65% and 27%.
`CC(C)c1onc(Cc2ccccc2)c1COc1ccc(/C=C/c2cccc(C(=O)O)c2)c(Cl)c1`: the EC50 in experiment [1] is 230 nM; in experiment [3] it was 550 nM. Moreover, the figures for the %max in experiment [2] and in experiment [4] were 67% and 120%, respectively.
For the molecule `CC(C)c1onc(CO)c1COc1ccc(/C=C/c2cccc(C(=O)O)c2)c(Cl)c1`, the EC50 in experiment [1] is above 10000 nM; in experiment [3], 7800 nM. The %max in experiment [2] is 22%.
Take `CC(C)c1onc(COc2cccc(Cl)c2Cl)c1COc1ccc(/C=C/c2cccc(C(=O)O)c2)c(Cl)c1`: the concentration giving a half-maximal response (EC50) was 630 nM in experiment [1] and 480 nM in experiment [3]. In addition, the %max in experiment [2] came to 82%; in experiment [4], 38%.
On to `CC(C)c1onc(COc2ccc(Cl)cc2Cl)c1COc1ccc(/C=C/c2cccc(C(=O)O)c2)c(Cl)c1`, for which the EC50 in experiment [1] was 690 nM; in experiment [3] it was 620 nM. In addition, the figures for the %max in experiment [2] and in experiment [4] were 72% and 39%, respectively.
Turning to `CC(C)c1onc(COc2cc(Cl)ccc2Cl)c1COc1ccc(/C=C/c2cccc(C(=O)O)c2)c(Cl)c1`, the EC50 stood at 900 nM in experiment [1] and 1000 nM in experiment [3]. Also, the %max in experiment [2] came out at 83%; in experiment [4] it was 37%.
In the case of `CC[C@@H](C)c1onc(-c2c(Cl)cccc2Cl)c1COc1ccc(/C=C/c2cccc(C(=O)O)c2)c(Cl)c1`, the EC50 in experiment [1] came out at 93 nM; in experiment [3], 105 nM. The %max was found to be 100% in experiment [2] and 105% in experiment [4].
For `CC(C)c1onc(CCc2c(Cl)cccc2Cl)c1COc1ccc(/C=C/c2cccc(C(=O)O)c2)c(Cl)c1` the same measures were 48 nM, 150 nM, 105% and 104%.
For `Cc1cccc(C)c1OCc1noc(C(C)C)c1COc1ccc(/C=C/c2cccc(C(=O)O)c2)c(Cl)c1` the same measures were 56 nM, 17 nM, 110% and 118%.
For `CC(C)c1onc(CCCc2ccccc2)c1COc1ccc(/C=C/c2cccc(C(=O)O)c2)c(Cl)c1`, the EC50 in experiment [1] is 1200 nM; in experiment [3], 4400 nM. For the same molecule, the %max in experiment [2] is 44%; in experiment [4] it was 68%.
Regarding `CC[C@H](C)c1onc(-c2c(Cl)cccc2Cl)c1COc1ccc(/C=C/c2cccc(C(=O)O)c2)c(Cl)c1`, the EC50 in experiment [1] amounted to 290 nM; in experiment [3], 190 nM. Besides, the %max is 96% in experiment [2] and 99% in experiment [4].
For `CC(C)c1onc(COc2c(F)cccc2F)c1COc1ccc(/C=C/c2cccc(C(=O)O)c2)c(Cl)c1` the same measures were 720 nM, 2200 nM, 100% and 112%.
For `CC(C)c1onc(COc2ccc(Cl)cc2)c1COc1ccc(/C=C/c2cccc(C(=O)O)c2)c(Cl)c1`, the EC50 is 1300 nM in experiment [1] and 450 nM in experiment [3]. In addition, the figures for the %max in experiment [2] and in experiment [4] were 58% and 53%, respectively.
For the molecule `CC(C)c1onc(COc2cccc3ccccc23)c1COc1ccc(/C=C/c2cccc(C(=O)O)c2)c(Cl)c1`, the EC50 in experiment [1] came to 1200 nM; in experiment [3] it was 960 nM. Besides, the %max was 79% in experiment [2] and 34% in experiment [4].
With `CC(C)c1onc(CNc2c(Cl)cncc2Cl)c1COc1ccc(/C=C/c2cccc(C(=O)O)c2)c(Cl)c1`, the results for the EC50 in experiment [1] and in experiment [3] were 420 nM and 400 nM, respectively. Also, the results for the %max in experiment [2] and in experiment [4] were 68% and 31%, respectively.
With `CC(C)c1onc(CS(=O)(=O)c2c(Cl)cccc2Cl)c1COc1ccc(/C=C/c2cccc(C(=O)O)c2)c(Cl)c1`, the EC50 in experiment [1] was 390 nM; in experiment [3], 150 nM. In addition, the %max was determined as 100% in experiment [2] and 68% in experiment [4].
For `Cc1cccc(Cl)c1OCc1noc(C(C)C)c1COc1ccc(/C=C/c2cccc(C(=O)O)c2)c(Cl)c1` the same measures were 150 nM, 48 nM, 106% and 111%.

What is called EC50 is the concentration giving half of the maximal effect.

Source of the values: ChEMBL document CHEMBL1136905, “Substituted isoxazole analogs of farnesoid X receptor (FXR) agonist GW4064” (Bioorg Med Chem Lett, 2009).
